Consider 2 compounds from patent US20240217974A1, “ISOQUINOLONE COMPOUND AND USE THEREOF” (Suzhou Suncadia Biopharmaceuticals Co., Ltd., priority 2021, published 2024).

Like-named read-outs stand apart in the source and are kept apart here.

One data set deals with T1, PDE4B1 (Homo sapiens, UniProt Q07343).
T1 construct: purchased BPS 60041
Put plainly: In vitro PDE4B enzyme activity assay (IMAP FP-based). It counts as biochemical. The method, then: (§1) The formula for calculating inhibition rates is: inhibition rate=M/(M−Mcontrol)×100; IC50 values were calculated from concentration-inhibition rate curves fitted.

The conditions of data set [1]: mouse, in vivo, inhaled or intranasal. The method, then:
To evaluate the pharmacokinetic characteristics of test samples in […] and their distributions in lung tissue after intratracheal administration.
0.5 g of tween 80 was weighed out and dissolved in 50 mL of a pH 2.5 citric acid/disodium hydrogen phosphate buffered salt solution for later use.
1.0 mg of test compound was weighed out and dissolved in a proper amount of the tween solution to prepare a 0.03 mg/mL for later use.
0.5 g of CMC-Na and 0.5 g of tween 20 were weighed out and well mixed with 50 mL of 0.9% normal saline solution to obtain a 1% CMC-Na and tween 20 solution for later use.
1.0 mg of test compound was weighed out, added to 10 mL of the above solution, dispersed ultrasonically, and well stirred to obtain a suspension for later use.
Mice were anesthetized with isoflurane gas and then administered compounds via the trachea. […] 200 μL of whole blood was collected, then anticoagulated with EDTA-K2, and centrifuged at 2-8° C. at a rate of about 6800 g for 6 min. The resulting plasma was transferred to properly labeled test tubes within 1 h of blood collection/centrifugation and stored at −80° C. […] The collected tissue samples were transferred to properly labeled test tubes and stored at −80° C.
Plasma samples (30.0 μL) were added to 1.5 mL centrifuge tubes, and 150 μL of internal standard working solution was added. […]

For another data set, the target named is T2, PDE3A (Homo sapiens, UniProt Q14432).
T2 construct: purchased BPS 60030
Put plainly: In vitro PDE3A enzyme activity assay (IMAP FP-based). Type of data set: biochemical. How it is done:
as §1

The conditions of data set [2]: recent phase II clinical data; cited from earlier work.

T1 sequence (Q07343 whole entry): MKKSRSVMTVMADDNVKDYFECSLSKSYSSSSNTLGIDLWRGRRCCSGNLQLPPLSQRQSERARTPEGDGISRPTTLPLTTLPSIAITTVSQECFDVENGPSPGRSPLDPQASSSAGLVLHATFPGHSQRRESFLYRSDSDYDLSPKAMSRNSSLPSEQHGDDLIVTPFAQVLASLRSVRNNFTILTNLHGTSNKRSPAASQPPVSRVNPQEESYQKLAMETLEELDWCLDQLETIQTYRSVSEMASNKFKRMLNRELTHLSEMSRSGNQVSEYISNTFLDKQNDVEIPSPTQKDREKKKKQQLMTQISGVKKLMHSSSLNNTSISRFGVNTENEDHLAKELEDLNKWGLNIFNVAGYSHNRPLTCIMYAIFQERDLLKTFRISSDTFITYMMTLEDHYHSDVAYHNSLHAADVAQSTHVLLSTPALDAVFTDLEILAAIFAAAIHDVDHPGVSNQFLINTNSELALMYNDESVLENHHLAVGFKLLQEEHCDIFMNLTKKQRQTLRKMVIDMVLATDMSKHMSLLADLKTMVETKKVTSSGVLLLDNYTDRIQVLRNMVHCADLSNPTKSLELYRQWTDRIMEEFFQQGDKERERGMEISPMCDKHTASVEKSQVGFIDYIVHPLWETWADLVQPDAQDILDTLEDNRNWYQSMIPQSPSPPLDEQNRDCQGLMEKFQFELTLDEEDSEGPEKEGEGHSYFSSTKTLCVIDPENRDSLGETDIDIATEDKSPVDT
T2 sequence (Q14432 669-1141 limits assumed): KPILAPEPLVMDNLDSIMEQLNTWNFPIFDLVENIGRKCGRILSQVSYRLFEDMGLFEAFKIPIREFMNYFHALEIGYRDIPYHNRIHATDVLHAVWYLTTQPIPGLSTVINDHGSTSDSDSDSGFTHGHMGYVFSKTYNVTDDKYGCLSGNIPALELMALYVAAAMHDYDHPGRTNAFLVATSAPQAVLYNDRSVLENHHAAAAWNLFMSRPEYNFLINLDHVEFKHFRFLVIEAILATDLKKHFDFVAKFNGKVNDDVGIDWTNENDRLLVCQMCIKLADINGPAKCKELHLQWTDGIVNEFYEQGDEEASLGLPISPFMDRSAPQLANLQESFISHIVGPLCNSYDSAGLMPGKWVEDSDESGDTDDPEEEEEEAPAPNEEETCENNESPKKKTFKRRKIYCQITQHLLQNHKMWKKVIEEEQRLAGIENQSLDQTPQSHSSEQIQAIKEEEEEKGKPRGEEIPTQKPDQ

By IC50 is commonly meant the concentration at which inhibition is half-maximal. As for “9,10-dimethoxy-2-(2,4,6-trimethylphenylimino)-3-(N-carbamoyl-2-aminoethyl)-3,4,6,7-tetrahydro-2H-pyrimido[6,l-a]isoquinolin-4-one [RPL554]”, the “Inhibition rate (%) PDE4B1 (2000 nM)” value on PDE4B1 (compound at 2000 nM) was determined as 64.2%. Besides, the IC50 on PDE4B1 (read-out: IC50 (nM) PDE4B1) is 110 nM. In data set [1], the “Plasma T1/2” value was 52.8 min and the “Plasma Tmax” value is 15 min. Moreover, the IC50 against PDE3A was 0.25 nM. For the same compound, at PDE3A (compound at 500 nM), the “Inhibition rate (%) PDE3A (500 nM)” value is recorded as 99.2%. In data set [2], the “bronchodilation and symptoms in patients with chronic obstructive pulmonary disease” value is “significantly improve bronchodilation and symptoms”; the “tolerability / adverse events” value was “well tolerated”.

Broadly, the inhibition is the percentage by which the read-out fell short of the control. `CCOc1cc2c(cc1OC)-c1cc(N(CCN3CCOC3=O)c3c(C)cc(C)cc3C)nc(=O)n1CC2` [WX001] returned an IC50 on PDE4B1 of 876 nM. Also, at PDE4B1 (read-out: Inhibition rate (%) PDE4B1 (2000 nM)), the inhibition at 2 µM worked out at 66.3%.
